# From PubChem BioAssay (NCI)
#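 Following 48 hours of exposure in 96-well plates, responses at five concentrations were used to interpolate endpoints linearly. At the TGI there is no net growth.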
# How the values were obtained:
# Experiment in all cases: NCI tumour cell line growth inhibition, 48 h
# OVCAR-4 ovarian = system: OVCAR-4 ovarian
# MDA-MB-231 breast = system: MDA-MB-231 breast
# T-47D breast = system: T-47D breast
# SF-539 CNS = system: SF-539 CNS
# LOX IMVI melanoma = system: LOX IMVI melanoma
# NCI/ADR-RES ovarian = system: NCI/ADR-RES ovarian
# SK-MEL-2 melanoma = system: SK-MEL-2 melanoma
# UACC-62 melanoma = system: UACC-62 melanoma
# RXF 393 renal = system: RXF 393 renal
# A498 renal = system: A498 renal
# TK-10 renal = system: TK-10 renal
# 786-0 renal = system: 786-0 renal
# HT29 colon = system: HT29 colon
# A549 NSCLC = system: A549 NSCLC
# HOP-62 NSCLC = system: HOP-62 NSCLC
# SF-295 CNS = system: SF-295 CNS
# MALME-3M melanoma = system: MALME-3M melanoma
# HCC-2998 colon = system: HCC-2998 colon
# HCT-116 colon = system: HCT-116 colon
# SK-MEL-28 melanoma = system: SK-MEL-28 melanoma
# EKVX NSCLC = system: EKVX NSCLC
# UACC-257 melanoma = system: UACC-257 melanoma
# SW-620 colon = system: SW-620 colon
# IGROV1 ovarian = system: IGROV1 ovarian
# COLO 205 colon = system: COLO 205 colon
# ACHN renal = system: ACHN renal
# NCI-H460 lung = system: NCI-H460 lung
# SK-OV-3 ovarian = system: SK-OV-3 ovarian
# NCI-H226 lung = system: NCI-H226 lung
# BT-549 breast = system: BT-549 breast
# KM12 colon = system: KM12 colon
# OVCAR-3 ovarian = system: OVCAR-3 ovarian
# SR leukemia = system: SR leukemia
# DU-145 prostate = system: DU-145 prostate
# UO-31 renal = system: UO-31 renal
# MCF7 breast = system: MCF7 breast
# SNB-19 CNS = system: SNB-19 CNS
# PC-3 prostate = system: PC-3 prostate
# NCI-H23 lung = system: NCI-H23 lung
# HCT-15 colon = system: HCT-15 colon
# MDA-MB-435 = system: MDA-MB-435
# OVCAR-8 ovarian = system: OVCAR-8 ovarian
# CAKI-1 renal = system: CAKI-1 renal
# OVCAR-5 ovarian = system: OVCAR-5 ovarian
# SK-MEL-5 melanoma = system: SK-MEL-5 melanoma
# U251 CNS = system: U251 CNS
# M14 melanoma = system: M14 melanoma
# K-562 leukemia = system: K-562 leukemia
# RPMI-8226 leukemia = system: RPMI-8226 leukemia
# SF-268 CNS = system: SF-268 CNS
smiles,measurement,setting,value
CC12CCC(C(=Nc3ccc([N+](=O)[O-])cc3)C1=O)C2(C)C (stereo not given),TGI,OVCAR-4 ovarian,69.8 µM
same,TGI,MDA-MB-231 breast,76.6 µM
same,TGI,T-47D breast,69.5 µM
same,TGI,SF-539 CNS,42.2 µM
same,TGI,LOX IMVI melanoma,31.3 µM
same,TGI,NCI/ADR-RES ovarian,63.5 µM
same,TGI,SK-MEL-2 melanoma,49.2 µM
same,TGI,UACC-62 melanoma,> 100 µM
same,TGI,RXF 393 renal,44.9 µM
same,TGI,A498 renal,> 100 µM
same,TGI,TK-10 renal,59 µM
same,TGI,786-0 renal,78.5 µM
same,TGI,HT29 colon,> 100 µM
same,TGI,A549 NSCLC,> 100 µM
same,TGI,HOP-62 NSCLC,81.9 µM
same,TGI,SF-295 CNS,> 100 µM
same,TGI,MALME-3M melanoma,30 µM
same,TGI,HCC-2998 colon,38.2 µM
same,TGI,HCT-116 colon,> 100 µM
same,TGI,SK-MEL-28 melanoma,37.4 µM
same,TGI,EKVX NSCLC,> 100 µM
same,TGI,UACC-257 melanoma,> 100 µM
same,TGI,SW-620 colon,98.4 µM
same,TGI,IGROV1 ovarian,57.3 µM
same,TGI,COLO 205 colon,44.6 µM
same,TGI,ACHN renal,> 100 µM
same,TGI,NCI-H460 lung,> 100 µM
same,TGI,SK-OV-3 ovarian,> 100 µM
same,TGI,NCI-H226 lung,> 100 µM
same,TGI,BT-549 breast,> 100 µM
same,TGI,KM12 colon,92.9 µM
same,TGI,OVCAR-3 ovarian,55.1 µM
same,TGI,SR leukemia,59.3 µM
same,TGI,DU-145 prostate,79.5 µM
same,TGI,UO-31 renal,> 100 µM
same,TGI,MCF7 breast,> 100 µM
same,TGI,SNB-19 CNS,> 100 µM
same,TGI,PC-3 prostate,> 100 µM
same,TGI,NCI-H23 lung,99.5 µM
same,TGI,HCT-15 colon,> 100 µM
same,TGI,MDA-MB-435,64.6 µM
same,TGI,OVCAR-8 ovarian,55.3 µM
same,TGI,CAKI-1 renal,> 100 µM
same,TGI,OVCAR-5 ovarian,> 100 µM
same,TGI,SK-MEL-5 melanoma,90.7 µM
same,TGI,U251 CNS,97.6 µM
same,TGI,M14 melanoma,> 100 µM
same,TGI,K-562 leukemia,55.2 µM
same,TGI,RPMI-8226 leukemia,52.3 µM
same,TGI,SF-268 CNS,47.3 µM
